Assay [1] relates to Aspergillus niger. Nature of the assay: Antimicrobial activity against Aspergillus niger. Type of assay: functional.
Assay [2] deals with Escherichia coli. Briefly: Antimicrobial activity against Escherichia coli. Type of assay: functional.
In assay [3] the test system is Staphylococcus aureus. Briefly: Antimicrobial activity against Staphylococcus aureus. The class given is functional.
For assay [4], the system named is Candida albicans. Nature of the assay: Antimicrobial activity against Candida albicans. The class given is functional.
Assay [5] deals with Mycolicibacterium smegmatis. Nature of the assay: Antimicrobial activity against Mycobacterium smegmatis. The class given is functional.
In assay [6] the test system is Escherichia coli. Briefly: Inhibition of Escherichia coli Peptidyl-tRNA hydrolase assessed as reduction in peptidyl-tRNA cleavage to free tRNA by gel electrophoresis.
Assay [7] deals with Pseudomonas aeruginosa. Nature of the assay: Inhibition of Pseudomonas aeruginosa Peptidyl-tRNA hydrolase assessed as reduction in peptidyl-tRNA cleavage to free tRNA by gel electrophoresis.
The test system of assay [8] is Salmonella enterica subsp. enterica serovar Typhimurium. Nature of the assay: (§1) Inhibition of Salmonella typhimurium Peptidyl-tRNA hydrolase assessed as reduction in peptidyl-tRNA cleavage to free tRNA by gel electrophoresis.
The nature of assay [9]: as §1. Also on record: species or system Salmonella enterica subsp. enterica serovar Typhimurium.

≈ marks a conversion by molar mass, not a printed value. Calls of active or inactive are those of the source. The calls are words filed in the database; no cut-off is given here. A value given as a limit tells only on which side of the number the result lay.

Take `COc1cc(=O)oc2c1CO[C@@H](CC(C)=O)C2` [PYRENOCINE K]: the MIC in [1], in [2], in [3], in assay [4] and in [5] was > 25 µg/mL each time.

As for `CCC[C@@H](O)Cc1oc(=O)cc(OC)c1C`, the MIC in assay [1], in assay [2], in assay [3], in assay [4] and in assay [5] was > 155 µg/mL each time.

As to `CCC[C@H]1Cc2oc(=O)cc(OC)c2CO1`, the MIC is 203 µg/mL (≈ 905 µM) in [1]; > 203 µg/mL in [2]; > 203 µg/mL in [3]; > 203 µg/mL in assay [4]; > 203 µg/mL in assay [5]. Further, the inhibition result in assay [6], in assay [7] and in assay [8] was “Active” in each case.

As for `COC(=O)[C@]12Oc3cccc(O)c3C(=O)[C@@H]1[C@H](O)C[C@@H](C)[C@@H]2O`, the MIC in assay [1] is > 100 µg/mL; in [2] it was > 100 µg/mL; in assay [3] it was > 100 µg/mL; in [4] it was 100 µg/mL (≈ 310 µM); in assay [5] it was > 100 µg/mL. Moreover, the inhibition entry in assay [6], in [7] and in assay [8] was “Active” each time.

On to `CCC[C@H]1Cc2oc(=O)cc(OC)c2[C@H](O)O1`, for which the MIC in [1] is > 75 µg/mL; in [2], 75 µg/mL (≈ 312 µM); in [3], > 75 µg/mL; in [4] it was > 75 µg/mL; in assay [5], > 75 µg/mL.

In the case of `COc1cc(=O)oc(CO)c1C`, the MIC is > 25 µg/mL in assay [1]; 25 µg/mL (≈ 147 µM) in assay [2]; > 25 µg/mL in assay [3]; 25 µg/mL (≈ 147 µM) in assay [4]; 25 µg/mL (≈ 147 µM) in [5].

On to `COC(=O)[C@]12Oc3cccc(O)c3C(=O)C1=C(O)C[C@@H](C)[C@@H]2O`, for which the MIC in assay [1], in assay [2], in assay [3], in assay [4] and in assay [5] was > 65 µg/mL each time. The inhibition entry in assay [6], in [7] and in assay [8] was “Active” in each case.

On to `CC[C@H](C)[C@@H]1NC(=O)[C@H](CCC(N)=O)N(C)C(=O)[C@@H](C(C)C)N(C)C(=O)CNC(=O)[C@@H]2CCCN2C(=O)[C@H](Cc2ccccc2)NC(=O)[C@H]([C@@H](C)CC)OC(=O)[C@H](CCC(=O)O)N(C)C(=O)[C@H](C(C)C)NC(=O)[C@@H]2CCCN2C1=O`, for which the MIC in assay [1], in assay [2], in assay [3], in assay [4] and in assay [5] was > 125 µg/mL throughout.

`CCC[C@H]1OCc2c(OC)cc(=O)oc2[C@H]1O`: the MIC is > 145 µg/mL in assay [1]; > 145 µg/mL in assay [2]; > 145 µg/mL in assay [3]; 145 µg/mL (≈ 604 µM) in assay [4]; 145 µg/mL (≈ 604 µM) in assay [5]. Besides, the inhibition entry in assay [6], in assay [7] and in assay [8] was “Active” throughout.

As to `CC[C@H](C)[C@@H]1NC(=O)[C@H](CCC(N)=O)N(C)C(=O)[C@@H](C(C)C)N(C)C(=O)CNC(=O)[C@@H]2CCCN2C(=O)[C@H](Cc2ccccc2)NC(=O)[C@H]([C@@H](C)CC)OC(=O)[C@H](CCC(=O)O)N(C)C(=O)[C@H](C(C)C)NC(=O)[C@@H]2CCCCN2C1=O`, the MIC in assay [1], in assay [2], in assay [3], in assay [4] and in [5] was > 98 µg/mL each time.

With `COc1cc(=O)oc2c1CO[C@@H](C[C@@H](C)O)C2`, the inhibition entry in assay [6], in [7] and in [8] was “Active” throughout.

Regarding `CCCC(O)Cc1oc(=O)cc(OC)c1CO` (racemic), the MIC in [1], in [2], in [3], in [4] and in assay [5] was > 55 µg/mL each time.

Turning to `CCCCCc1oc(=O)cc(OC)c1CO` [PYRENOCINE M], the MIC in assay [1], in assay [2], in assay [3], in [4] and in assay [5] was > 140 µg/mL throughout.

For the compound `COc1cc(=O)oc2c1CO[C@@H](CO)C2`, the MIC in assay [1], in assay [2], in assay [3], in [4] and in [5] was > 53 µg/mL throughout. The inhibition result in [6], in [7] and in assay [8] was “Active” in each case.

For the compound `COC(=O)[C@]12Oc3ccc(-c4ccc5c(c4O)C(=O)C4=C(O)C[C@@H](C)[C@H](O)[C@@]4(C(=O)OC)O5)c(O)c3C(=O)C1=C(O)C[C@@H](C)[C@@H]2O` [SECALONIC ACID A], the MIC in [1], in assay [2], in assay [3], in assay [4] and in [5] was > 75 µg/mL each time. Moreover, the inhibition entry in assay [6] and in [7] was “Active” in each case. In addition, the IC50 in assay [9] turned out to be 1400 µM.

As for `CCCCC(O)c1cc(OC)c(C)c(=O)o1` (racemic), the MIC in assay [1], in [2], in assay [3], in assay [4] and in [5] was > 35 µg/mL in each case.

For the compound `COC(=O)[C@]12Oc3cccc(O)c3C(=O)[C@@H]1[C@@H](O)C[C@@H](C)[C@@H]2O`, the MIC in assay [1], in [2], in assay [3], in assay [4] and in assay [5] was > 75 µg/mL each time.

For the origin of these results see ChEMBL document CHEMBL3872273, “α-Pyrone derivatives, tetra/hexahydroxanthones, and cyclodepsipeptides from two freshwater fungi” (Bioorg Med Chem, 2017).
